Measured values reported in ChEMBL document CHEMBL1148442, “Design, synthesis, and evaluation of metabolism-based analogues of haloperidol incapable of forming MPP+-like species” (J Med Chem, 2004).

Tests used:
[1] = target: D(3) dopamine receptor (Homo sapiens) (UniProt P35462)
Description: Displacement of [3H]7-OH-DPAT from human Dopamine receptor D3

[2] = target: D(2) dopamine receptor (Homo sapiens) (UniProt P14416)
Description: Displacement of [3H]spiperone from human Dopamine receptor D2

[3] = target: T1, D(4) dopamine receptor (Homo sapiens) (UniProt P21917)
T1 sequence (whole entry): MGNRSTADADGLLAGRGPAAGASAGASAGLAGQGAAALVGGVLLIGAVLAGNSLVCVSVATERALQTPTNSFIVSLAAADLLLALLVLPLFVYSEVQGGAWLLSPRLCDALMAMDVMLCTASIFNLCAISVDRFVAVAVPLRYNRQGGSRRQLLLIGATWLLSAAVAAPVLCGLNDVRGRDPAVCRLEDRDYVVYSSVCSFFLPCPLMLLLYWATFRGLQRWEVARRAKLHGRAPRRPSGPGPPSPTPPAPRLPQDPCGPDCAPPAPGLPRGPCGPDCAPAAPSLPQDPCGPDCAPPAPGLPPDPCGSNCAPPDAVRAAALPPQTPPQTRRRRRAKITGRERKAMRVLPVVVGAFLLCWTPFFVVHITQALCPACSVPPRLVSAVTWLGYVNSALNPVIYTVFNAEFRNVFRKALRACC
Description: Displacement of [3H]spiperone from human Dopamine receptor D4

Chain of D(2) dopamine receptor (Homo sapiens) (P14416 whole entry): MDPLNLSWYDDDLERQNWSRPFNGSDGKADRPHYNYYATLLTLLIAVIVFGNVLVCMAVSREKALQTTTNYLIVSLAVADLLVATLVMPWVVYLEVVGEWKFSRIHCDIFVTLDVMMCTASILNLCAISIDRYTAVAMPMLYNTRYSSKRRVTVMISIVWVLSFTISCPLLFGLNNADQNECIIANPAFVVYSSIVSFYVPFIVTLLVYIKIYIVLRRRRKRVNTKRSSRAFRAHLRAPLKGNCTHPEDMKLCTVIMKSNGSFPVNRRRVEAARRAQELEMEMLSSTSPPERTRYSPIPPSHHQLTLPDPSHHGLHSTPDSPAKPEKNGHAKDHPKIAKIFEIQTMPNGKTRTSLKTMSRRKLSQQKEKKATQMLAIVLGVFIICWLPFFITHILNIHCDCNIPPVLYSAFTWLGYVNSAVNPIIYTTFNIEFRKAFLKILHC
Chain of D(3) dopamine receptor (Homo sapiens) (P35462 whole entry): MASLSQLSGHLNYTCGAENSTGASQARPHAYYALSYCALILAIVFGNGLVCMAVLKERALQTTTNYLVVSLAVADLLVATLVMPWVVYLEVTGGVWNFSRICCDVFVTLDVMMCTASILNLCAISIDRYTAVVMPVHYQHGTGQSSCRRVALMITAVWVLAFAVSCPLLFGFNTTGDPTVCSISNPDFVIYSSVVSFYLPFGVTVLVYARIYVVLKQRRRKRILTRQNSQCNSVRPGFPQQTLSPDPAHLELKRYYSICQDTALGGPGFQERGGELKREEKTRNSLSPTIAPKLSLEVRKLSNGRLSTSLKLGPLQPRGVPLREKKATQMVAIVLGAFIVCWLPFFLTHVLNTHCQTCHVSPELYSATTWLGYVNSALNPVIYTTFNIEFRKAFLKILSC

| Compound | pKi [1] | pKi [2] | pKi [3] |
| --- | --- | --- | --- |
| O=C(CCC[n+]1ccc(-c2ccc(Cl)cc2)cc1)c1ccc(F)cc1 | < 6 | < 6 | < 6 |
| O=C(CCCN1CCC(c2ccc(Cl)cc2)C1)c1ccc(F)cc1 (stereo not given) |  | 7.81 | 7.82 |
| CN(CCCC(=O)c1ccc(F)cc1)CCCC(O)c1ccc(Cl)cc1 (stereo not given) | 6.79 |  | 6.72 |
| O=C(CCCN1CCC(CO)(c2ccc(Cl)cc2)CC1)c1ccc(F)cc1 | 6.96 | 7.81 | 7.11 |
| O=C(CCCN1CCC(CCO)(c2ccc(Cl)cc2)C1)c1ccc(F)cc1 (stereo not given) | 7.49 | 7.64 | 6.71 |
| O=C(CCCN1CCC(C(O)c2ccc(Cl)cc2)CC1)c1ccc(F)cc1 (stereo not given) | 7.11 | 7.62 | 6.91 |
| O=C(CCCN1CCCC(O)(c2ccc(Cl)cc2)CC1)c1ccc(F)cc1 (stereo not given) |  | 8.96 |  |
| O=C(CCCN1CCC(O)(Cc2ccc(Cl)cc2)CC1)c1ccc(F)cc1 | 8.05 | 8.1 | 7.23 |
| O=C(CCCN1CCC(c2ccc(Cl)cc2)CC1)c1ccc(F)cc1 | 7.34 |  | 7.59 |
| O=C(CCCN1CCC(CO)(c2ccc(Cl)cc2)C1)c1ccc(F)cc1 (stereo not given) | 6.78 | 7.36 | 7.62 |
